Key:
[1] = Antiproliferative activity against human HCC2998 cells assessed as cell growth at 10^-4 M after 48 hrs by sulforhodamine B assay; assay type: functional; conditions: HCC 2998, 48 h, read-out: Activity
[2] = Antiproliferative activity against human HOP92 cells assessed as cell growth at 10^-6 M after 48 hrs by sulforhodamine B assay; assay type: functional; conditions: HOP-92, 48 h, read-out: Activity
[3] = target: CYP2D6 (Homo sapiens, UniProt P10635); test: Inhibition of recombinant human CYP2D6 assessed as remaining enzyme activity using CYP2D6 blue as substrate at 10 uM after 5 mins in presence of NADP by fluorescence plate reader analysis; assay type: ADME; conditions: recombinant human CYP2D6, probe CYP2D6 blue, read-out: Activity
Sequence of CYP2D6 (P10635 whole entry): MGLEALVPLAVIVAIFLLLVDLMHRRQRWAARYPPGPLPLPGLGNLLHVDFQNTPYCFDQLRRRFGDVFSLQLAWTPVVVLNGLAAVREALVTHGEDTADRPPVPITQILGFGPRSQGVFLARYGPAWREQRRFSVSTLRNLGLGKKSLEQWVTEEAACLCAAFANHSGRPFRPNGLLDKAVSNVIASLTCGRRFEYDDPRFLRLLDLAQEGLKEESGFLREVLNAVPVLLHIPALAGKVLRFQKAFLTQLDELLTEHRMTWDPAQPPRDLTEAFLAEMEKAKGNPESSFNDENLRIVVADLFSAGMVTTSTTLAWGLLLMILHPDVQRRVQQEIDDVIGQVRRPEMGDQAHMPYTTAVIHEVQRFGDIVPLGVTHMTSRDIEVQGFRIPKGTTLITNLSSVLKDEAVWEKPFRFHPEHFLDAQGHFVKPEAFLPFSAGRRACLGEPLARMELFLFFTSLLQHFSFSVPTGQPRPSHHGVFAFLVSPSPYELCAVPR

[4] = system: 786-0; test: Antiproliferative activity against human 786-0 cells assessed as cell growth at 10^-6 M after 48 hrs by sulforhodamine B assay; assay type: functional; conditions: 786-0, 48 h, read-out: Activity
[5] = Antiproliferative activity against human SF268 cells assessed as cell growth at 10^-7 M after 48 hrs by sulforhodamine B assay; assay type: functional; conditions: SF-268, 48 h, read-out: Activity
[6] = system: NCI-H226; test: Antiproliferative activity against human NCI-H226 cells assessed as cell growth at 10^-4 M after 48 hrs by sulforhodamine B assay; assay type: functional; conditions: NCI-H226, 48 h, read-out: Activity
[7] = system: ACHN; test: Antiproliferative activity against human ACHN cells assessed as cell growth at 10^-8 M after 48 hrs by sulforhodamine B assay; assay type: functional; conditions: read-out: Activity
[8] = system: MCF7; test: Antiproliferative activity against human MCF7 cells assessed as cell growth at 10^-4 M after 48 hrs by sulforhodamine B assay; assay type: functional; conditions: MCF7, 48 h, read-out: Activity
[9] = Antiproliferative activity against human SF268 cells assessed as cell growth at 10^-6 M after 48 hrs by sulforhodamine B assay; assay type: functional; conditions: SF-268, 48 h, read-out: Activity
[10] = target: CYP3A4 (Homo sapiens, UniProt P08684); test: Inhibition of recombinant human CYP3A4 assessed as remaining enzyme activity using CYP3A4 blue as substrate at 10 uM after 5 mins in presence of NADP by fluorescence plate reader analysis; assay type: ADME; conditions: recombinant human CYP3A4, probe CYP3A4 blue, read-out: Activity
Sequence of CYP3A4 (P08684 whole entry): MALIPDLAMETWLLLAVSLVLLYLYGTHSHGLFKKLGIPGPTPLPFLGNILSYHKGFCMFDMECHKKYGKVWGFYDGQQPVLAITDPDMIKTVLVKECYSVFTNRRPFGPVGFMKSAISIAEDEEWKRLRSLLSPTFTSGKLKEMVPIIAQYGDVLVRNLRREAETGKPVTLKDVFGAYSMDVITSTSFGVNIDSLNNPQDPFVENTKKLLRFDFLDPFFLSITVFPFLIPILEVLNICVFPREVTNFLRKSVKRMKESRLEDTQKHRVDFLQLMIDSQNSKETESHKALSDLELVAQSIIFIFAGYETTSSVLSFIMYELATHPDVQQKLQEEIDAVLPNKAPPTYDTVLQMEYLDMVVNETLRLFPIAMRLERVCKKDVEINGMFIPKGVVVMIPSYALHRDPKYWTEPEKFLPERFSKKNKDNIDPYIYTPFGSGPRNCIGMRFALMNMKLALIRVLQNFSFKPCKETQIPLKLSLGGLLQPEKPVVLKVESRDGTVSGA

[11] = system: MDA-MB-435; test: Antiproliferative activity against human MDA-MB-435 cells assessed as growth inhibition after 48 hrs by sulforhodamine B assay; assay type: functional; conditions: MDA-MB-435, 48 h
[12] = Antiproliferative activity against human SNB75 cells assessed as cell growth at 10^-8 M after 48 hrs by sulforhodamine B assay; assay type: functional; conditions: SNB-75, 48 h, read-out: Activity
[13] = Antiproliferative activity against human TK10 cells assessed as growth inhibition after 48 hrs by sulforhodamine B assay; assay type: functional; conditions: TK-10, 48 h
[14] = Antiproliferative activity against human HCT15 cells assessed as cell growth at 10^-7 M after 48 hrs by sulforhodamine B assay; assay type: functional; conditions: HCT-15, 48 h, read-out: Activity
[15] = system: HT-29; test: Antiproliferative activity against human HT-29 cells assessed as cell growth at 10^-7 M after 48 hrs by sulforhodamine B assay; assay type: functional; conditions: HT-29, 48 h, read-out: Activity
[16] = system: EKVX; test: Antiproliferative activity against human EKVX cells assessed as cell growth at 10^-7 M after 48 hrs by sulforhodamine B assay; assay type: functional; conditions: read-out: Activity
[17] = system: SK-MEL-28; test: Antiproliferative activity against human SK-MEL-28 cells assessed as cell growth at 10^-4 M after 48 hrs by sulforhodamine B assay; assay type: functional; conditions: SK-MEL-28, 48 h, read-out: Activity
[18] = Antiproliferative activity against human OVCAR3 cells assessed as growth inhibition after 48 hrs by sulforhodamine B assay; assay type: functional; conditions: OVCAR-3, 48 h
[19] = Antiproliferative activity against human IGROV1 cells assessed as cell growth at 10^-7 M after 48 hrs by sulforhodamine B assay; assay type: functional; conditions: IGROV-1, 48 h, read-out: Activity
[20] = Antiproliferative activity against human HOP62 cells assessed as cell growth at 10^-4 M after 48 hrs by sulforhodamine B assay; assay type: functional; conditions: HOP-62, 48 h, read-out: Activity
[21] = system: U-251; test: Antiproliferative activity against human U251 cells assessed as cell growth at 10^-4 M after 48 hrs by sulforhodamine B assay; assay type: functional; conditions: U-251, 48 h, read-out: Activity
[22] = system: U-251; test: Antiproliferative activity against human U251 cells assessed as cell growth at 10^-8 M after 48 hrs by sulforhodamine B assay; assay type: functional; conditions: U-251, 48 h, read-out: Activity
[23] = Antiproliferative activity against human Caki1 cells assessed as cell growth at 10^-8 M after 48 hrs by sulforhodamine B assay; assay type: functional; conditions: CAKI-1, 48 h, read-out: Activity
[24] = Antiproliferative activity against human OVCAR4 cells assessed as cell growth at 10^-6 M after 48 hrs by sulforhodamine B assay; assay type: functional; conditions: OVCAR-4, 48 h, read-out: Activity
[25] = Antiproliferative activity against human OVCAR4 cells assessed as cell growth at 10^-8 M after 48 hrs by sulforhodamine B assay; assay type: functional; conditions: OVCAR-4, 48 h, read-out: Activity
[26] = Antiproliferative activity against human RPMI8226 cells assessed as growth inhibition after 48 hrs by sulforhodamine B assay; assay type: functional; conditions: RPMI-8226, 48 h
[27] = Antiproliferative activity against human RPMI8226 cells assessed as cell growth at 10^-6 M after 48 hrs by sulforhodamine B assay; assay type: functional; conditions: RPMI-8226, 48 h, read-out: Activity
[28] = system: A498; test: Antiproliferative activity against human A498 cells assessed as growth inhibition after 48 hrs by sulforhodamine B assay; assay type: functional; conditions: A498, 48 h
[29] = system: A549; test: Antiproliferative activity against human A549/ATCC cells assessed as cell growth at 10^-6 M after 48 hrs by sulforhodamine B assay; assay type: functional; conditions: A549, 48 h, read-out: Activity
[30] = system: NCI-H23; test: Antiproliferative activity against human NCI-H23 cells assessed as growth inhibition after 48 hrs by sulforhodamine B assay; assay type: functional; conditions: NCI-H23, 48 h
[31] = system: MDA-MB-468; test: Antiproliferative activity against human MDA-MB-468 cells assessed as cell growth at 10^-7 M after 48 hrs by sulforhodamine B assay; assay type: functional; conditions: MDA-MB-468, 48 h, read-out: Activity
[32] = system: HT-29; test: Antiproliferative activity against human HT-29 cells assessed as cell growth at 10^-6 M after 48 hrs by sulforhodamine B assay; assay type: functional; conditions: HT-29, 48 h, read-out: Activity
[33] = Antiproliferative activity against human OVCAR3 cells assessed as cell growth at 10^-4 M after 48 hrs by sulforhodamine B assay; assay type: functional; conditions: OVCAR-3, 48 h, read-out: Activity
[34] = Antiproliferative activity against human DU145 cells assessed as cell growth at 10^-4 M after 48 hrs by sulforhodamine B assay; assay type: functional; conditions: DU-145, 48 h, read-out: Activity
[35] = read-out: LC50 (the source's name)

Question: With CNC(=O)c1cc(Oc2ccc3nc(NC(=O)Nc4ccc(Cl)c(Cl)c4)sc3c2)ccn1 as the compound, how does the growth at 100 µM [1] read?
Answer: The growth at 100 µM was 37%.

Question: What about the growth at 1 µM [2] of the same compound?
Answer: The growth at 1 µM was 119%.

Question: What about the activity at 5 min, 10 µM [3] of the same compound?
Answer: The activity at 5 min, 10 µM was 96.4%.

Question: And the growth at 1 µM [4]?
Answer: The growth at 1 µM was 100%.

Question: And the growth at 0.1 µM [5]?
Answer: Its growth at 0.1 µM is 99%.

Question: And the growth at 100 µM [6]?
Answer: The growth at 100 µM was -59%.

Question: And the growth at 0.01 µM [7]?
Answer: The growth at 0.01 µM was 92%.

Question: And the growth at 100 µM [8]?
Answer: The growth at 100 µM was 7%.

Question: And the growth at 1 µM [9]?
Answer: The growth at 1 µM was 95%.

Question: And the activity at 5 min, 10 µM [10]?
Answer: The activity at 5 min, 10 µM was 104%.

Question: What about the GI50 [11] of the same compound?
Answer: The GI50 was 2020 nM.

Question: And the TGI [11]?
Answer: Its TGI is 4.62 µM.

Question: What about the CC50 [11, 35] of the same compound?
Answer: Its CC50 is over 100 µM.

Question: What about the growth at 0.01 µM [12] of the same compound?
Answer: The growth at 0.01 µM was 76%.

Question: And the GI50 [13]?
Answer: The GI50 was 3.46 µM.

Question: What about the TGI [13] of the same compound?
Answer: Its TGI is 9.26 µM.

Question: What about the CC50 [13, 35] of the same compound?
Answer: The CC50 was over 100 µM.

Question: And the growth at 0.1 µM [14]?
Answer: The growth at 0.1 µM was 97%.

Question: What about the growth at 0.1 µM [15] of the same compound?
Answer: Its growth at 0.1 µM is 105%.

Question: What about the growth at 0.1 µM [16] of the same compound?
Answer: The growth at 0.1 µM was 93%.

Question: And the growth at 100 µM [17]?
Answer: Its growth at 100 µM is -51%.

Question: And the GI50 [18]?
Answer: Its GI50 is 2300 nM.

Question: What about the LC50 [18] of the same compound?
Answer: Its LC50 is over 100 µM.

Question: What about the TGI [18] of the same compound?
Answer: The TGI was 5.38 µM.

Question: And the growth at 0.1 µM [19]?
Answer: Its growth at 0.1 µM is 92%.

Question: And the growth at 100 µM [20]?
Answer: The growth at 100 µM was -85%.

Question: What about the growth at 100 µM [21] of the same compound?
Answer: Its growth at 100 µM is -90%.

Question: And the growth at 0.01 µM [22]?
Answer: The growth at 0.01 µM was 98%.

Question: And the growth at 0.01 µM [23]?
Answer: The growth at 0.01 µM was 92%.

Question: And the growth at 1 µM [24]?
Answer: The growth at 1 µM was 104%.

Question: What about the growth at 0.01 µM [25] of the same compound?
Answer: Its growth at 0.01 µM is 93%.

Question: And the GI50 [26]?
Answer: Its GI50 is 3.66 µM.

Question: And the LC50 [26]?
Answer: The LC50 was over 100 µM.

Question: What about the TGI [26] of the same compound?
Answer: Its TGI is over 100 µM.

Question: And the growth at 1 µM [27]?
Answer: The growth at 1 µM was 103%.

Question: What about the GI50 [28] of the same compound?
Answer: The GI50 was 2930 nM.

Question: What about the LC50 (concentration killing 50% of cells) [28] of the same compound?
Answer: Its LC50 (concentration killing 50% of cells) is over 100 µM.

Question: What about the TGI [28] of the same compound?
Answer: Its TGI is 6.64 µM.

Question: What about the growth at 1 µM [29] of the same compound?
Answer: The growth at 1 µM was 93%.

Question: What about the GI50 [30] of the same compound?
Answer: Its GI50 is 2780 nM.

Question: What about the LC50 [30] of the same compound?
Answer: The LC50 was over 100 µM.

Question: What about the TGI [30] of the same compound?
Answer: Its TGI is over 100 µM.

Question: And the growth at 0.1 µM [31]?
Answer: Its growth at 0.1 µM is 91%.

Question: What about the growth at 1 µM [32] of the same compound?
Answer: Its growth at 1 µM is 106%.

Question: And the growth at 100 µM [33]?
Answer: Its growth at 100 µM is -24%.

Question: And the growth at 100 µM [34]?
Answer: Its growth at 100 µM is -34%.
